For 14 compounds, IC50 results are on record in patent US20200078468A1, “NEUROTENSIN RECEPTOR BINDING CONJUGATES AND FORMULATIONS THEREOF” (priority 2016, published 2020).

Numbered stars: 1 amine (or outer) side, 2 acyl side, 3 side chain; on linkers, the order of the positions; unused ones are H or OH. Bridge positions count the residues as written; N and C are the ends. Square brackets hold non-standard residues; d marks the D form. Peptide text beside a SMILES is read from it. I, II: the chains in the order shown. * marks the point of attachment. SN38(20-O) = CCc1c2c(nc3ccc(O)cc13)-c1cc3c(c(=O)n1C2)COC(=O)[C@@]3(CC)O*; Hexanoyl(6-succinimido-3yl) = O=C1CC([*:1])C(=O)N1CCCCCC(=O)[*:2]; NMeR = CN[C@@H](CCCNC(=N)N)C(=O)O; Pen = CC(C)(S)[C@H](N)C(=O)O; Tle = CC(C)(C)[C@H](N)C(=O)O Where only a bound is given, the exact number is not on record here.

The test system of the first assay is SW48 (human colon cancer cells). In words: inhibition of SW48 cell proliferation (CellTiter Glo). It is filed as cell-based. As to conditions: NTSR1 scrambled compound; 72 hrs; read-out: SW-48 proliferation IC50. As to the method:
Conjugates were assessed in an in vitro assay evaluating inhibition of cell proliferation. SW48 (human colon cancer cells, ATCC®), cells were plated in 96 well, flat-bottomed plates (Costar) at a concentration of 5,000 cells/well. Cells were then incubated at 37° C. with 5% CO2 for 24 hrs. After 24 hrs, cells were treated with 0.01% DMSO or compound. Compounds were added at a starting dose of 10 μM and three fold serial dilutions were done for a total often points. Following compound addition, cells were incubated at 37° C. with 5% CO2 for 72 hrs. Proliferation was measured by CellTiter Glo reagent using the standard protocol (Promega) and a Glomax multi+detection system (Promega). Percent proliferation inhibition was calculated using the following formula: % inhibition=(control−treatment)/control*100. Control is defined as vehicle alone. IC50 curves were generated using the nonlinear regression analysis (four parameter) with GraphPad Prism 6.
Conjugates are assessed for receptor-dependent cytotoxicity by the difference between an NTSR1-targeting conjugate, and the corresponding conjugate with the same linker moiety and active agent where the NTSR1-targeting domain has been scrambled.
(In general: Cellular ATP, detected with luciferase, serves as a proxy for viable cell number.)
For the compound `CC(=O)N[C@H](C(=O)N1CCC[C@H]1C(=O)N[C@@H](CC(C)C)C(=O)N1CCC[C@H]1C(=O)N[C@@H](CCCNC(=N)N)C(=O)N[C@H](C(=O)N[C@@H](CCCNC(=N)N)C(=O)N[C@@H](Cc1ccc(O)cc1)C(=O)O)C(C)(C)C)C(C)(C)SC1CC(=O)N(CCCCCC(=O)N[C@@H](Cc2ccccc2)C(=O)N[C@@H](CC(C)C)B2O[C@@H]3[C@@H]4C[C@H](C[C@]3(C)O2)C4(C)C)C1=O` (some centres unmarked) [Compound 69], the IC50 was greater than 10000 nM.
Same read-out and setting: as for `CO[C@H]1C(=O)[C@]2(C)[C@@H](OC)C[C@H]3OC[C@@]3(OC(C)=O)[C@H]2[C@H](OC(=O)c2ccccc2)[C@]2(O)C[C@H](OC(=O)[C@H](OC(=O)CCCCCN3C(=O)CC(SC(C)(C)[C@H](NC(C)=O)C(=O)N4CCC[C@H]4C(=O)N[C@@H](CC(C)C)C(=O)N4CCC[C@H]4C(=O)N[C@@H](CCCNC(=N)N)C(=O)N[C@H](C(=O)N[C@@H](CCCNC(=N)N)C(=O)N[C@@H](Cc4ccc(O)cc4)C(=O)O)C(C)(C)C)C3=O)[C@@H](NC(=O)OC(C)(C)C)c3ccccc3)C(C)=C1C2(C)C` (some centres unmarked) [Compound 72], the figure is 368 nM; as for `CO[C@H]1C(=O)[C@]2(C)[C@@H](OC)C[C@H]3OC[C@@]3(OC(C)=O)[C@H]2[C@H](OC(=O)c2ccccc2)[C@]2(O)C[C@H](OC(=O)[C@H](OC(=O)N(C)CCN(C)C(=O)OCc3ccc(NC(=O)[C@H](CCCNC(N)=O)NC(=O)[C@@H](NC(=O)CCCCCN4C(=O)CC(SC(C)(C)[C@H](NC(C)=O)C(=O)N5CCC[C@H]5C(=O)N[C@@H](CC(C)C)C(=O)N5CCC[C@H]5C(=O)N[C@@H](CCCNC(=N)N)C(=O)N[C@H](C(=O)N[C@@H](CCCNC(=N)N)C(=O)N[C@@H](Cc5ccc(O)cc5)C(=O)O)C(C)(C)C)C4=O)C(C)C)cc3)[C@@H](NC(=O)OC(C)(C)C)c3ccccc3)C(C)=C1C2(C)C` (some centres unmarked) [Compound 73], 2620 nM.
For the compound `CO[C@H]1C(=O)[C@]2(C)[C@@H](OC)C[C@H]3OC[C@@]3(OC(C)=O)[C@H]2[C@H](OC(=O)c2ccccc2)[C@]2(O)C[C@H](OC(=O)[C@H](OC(=O)N(C)CCCNC(=O)CNC(=O)[C@H](CC(C)C)NC(=O)[C@H](Cc3ccccc3)NC(=O)CNC(=O)CCCCCN3C(=O)CC(SCCC(=O)NCCCC[C@H](NC(C)=O)C(=O)N4CCC[C@H]4C(=O)N[C@@H](CC(C)C)C(=O)N4CCC[C@H]4C(=O)N(C)[C@@H](CCCNC(=N)N)C(=O)N[C@H](C(=O)N[C@@H](CCCNC(=N)N)C(=O)N[C@@H](Cc4ccc(O)cc4)C(=O)O)C(C)(C)C)C3=O)[C@@H](NC(=O)OC(C)(C)C)c3ccccc3)C(C)=C1C2(C)C` (some centres unmarked) [Compound 74], the IC50 is greater than 10000 nM.
Same read-out and setting: the value for `COc1cc2cc(c1Cl)N(C)C(=O)C[C@H](OC(=O)[C@H](C)N(C)C(=O)CCSC1CC(=O)N(CCCNC(=O)CNC(=O)[C@H](CC(C)C)NC(=O)[C@H](Cc3ccccc3)NC(=O)CNC(=O)CCCCCN3C(=O)CC(SCCC(=O)NCCCC[C@H](NC(C)=O)C(=O)N4CCC[C@H]4C(=O)N[C@@H](CC(C)C)C(=O)N4CCC[C@H]4C(=O)N(C)[C@@H](CCCNC(=N)N)C(=O)N[C@H](C(=O)N[C@@H](CCCNC(=N)N)C(=O)N[C@@H](Cc4ccc(O)cc4)C(=O)O)C(C)(C)C)C3=O)C1=O)[C@]1(C)O[C@H]1[C@H](C)[C@@H]1C[C@@](O)(NC(=O)O1)[C@H](OC)/C=C/C=C(\C)C2` (some centres unmarked) [Compound 82] was 435 nM.
Regarding `COc1cc2cc(c1Cl)N(C)C(=O)C[C@H](OC(=O)[C@H](C)N(C)C(=O)CCSC1CC(=O)N(CCCNC(=O)CNC(=O)[C@H](CC(C)C)NC(=O)[C@H](Cc3ccccc3)NC(=O)CNC(=O)CCCCCN3C(=O)CC(SCCC(=O)NCCOCCOCCC(=O)NCCCC[C@H](NC(C)=O)C(=O)N4CCC[C@H]4C(=O)N[C@@H](CC(C)C)C(=O)N4CCC[C@H]4C(=O)N(C)[C@@H](CCCNC(=N)N)C(=O)N[C@H](C(=O)N[C@@H](CCCNC(=N)N)C(=O)N[C@@H](Cc4ccc(O)cc4)C(=O)O)C(C)(C)C)C3=O)C1=O)[C@]1(C)O[C@H]1[C@H](C)[C@@H]1C[C@@](O)(NC(=O)O1)[C@H](OC)/C=C/C=C(\C)C2` (some centres unmarked) [Compound 83], the IC50 was found to be 1830 nM.
On the same count and under the same terms, as for `COc1cc2cc(c1Cl)N(C)C(=O)C[C@H](OC(=O)[C@H](C)N(C)C(=O)CCSC1CC(=O)N(CCCNC(=O)CNC(=O)[C@H](CC(C)C)NC(=O)[C@H](Cc3ccccc3)NC(=O)CNC(=O)CCCCCN3C(=O)CC(SCCC(=O)NCCOCCOCCOCCOCCC(=O)NCCCC[C@H](NC(C)=O)C(=O)N4CCC[C@H]4C(=O)N[C@@H](CC(C)C)C(=O)N4CCC[C@H]4C(=O)N(C)[C@@H](CCCNC(=N)N)C(=O)N[C@H](C(=O)N[C@@H](CCCNC(=N)N)C(=O)N[C@@H](Cc4ccc(O)cc4)C(=O)O)C(C)(C)C)C3=O)C1=O)[C@]1(C)O[C@H]1[C@H](C)[C@@H]1C[C@@](O)(NC(=O)O1)[C@H](OC)/C=C/C=C(\C)C2` (some centres unmarked) [Compound 84], the figure is 48.5 nM.
With `COc1cc2cc(c1Cl)N(C)C(=O)C[C@H](OC(=O)[C@H](C)N(C)C(=O)CCSC1CC(=O)N(CCCNC(=O)CNC(=O)[C@H](CC(C)C)NC(=O)[C@H](Cc3ccccc3)NC(=O)CNC(=O)CCCCCN3C(=O)CC(SCCC(=O)NCCOCCOCCOCCOCCOCCOCCOCCOCCC(=O)NCCCC[C@H](NC(C)=O)C(=O)N4CCC[C@H]4C(=O)N[C@@H](CC(C)C)C(=O)N4CCC[C@H]4C(=O)N(C)[C@@H](CCCNC(=N)N)C(=O)N[C@H](C(=O)N[C@@H](CCCNC(=N)N)C(=O)N[C@@H](Cc4ccc(O)cc4)C(=O)O)C(C)(C)C)C3=O)C1=O)[C@]1(C)O[C@H]1[C@H](C)[C@@H]1C[C@@](O)(NC(=O)O1)[C@H](OC)/C=C/C=C(\C)C2` (some centres unmarked) [Compound 85], the IC50 turned out to be 59.5 nM.
Turning to `COc1cccc2c1C(=O)c1c(O)c3c(c(O)c1C2=O)C[C@@](O)(C(=O)CO)C[C@@H]3O[C@H]1C[C@H](NC(=O)OCCSSC(C)(C)[C@H](NC(C)=O)C(=O)N2CCC[C@H]2C(=O)N[C@@H](CC(C)C)C(=O)N2CCC[C@H]2C(=O)N[C@@H](CCCNC(=N)N)C(=O)N[C@H](C(=O)N[C@@H](CCCNC(=N)N)C(=O)N[C@@H](Cc2ccc(O)cc2)C(=O)O)C(C)(C)C)[C@H](O)[C@H](C)O1` [Compound 88], the IC50 amounted to 1940 nM.
With `COc1cccc2c1C(=O)c1c(O)c3c(c(O)c1C2=O)C[C@@](O)(C(=O)CO)C[C@@H]3O[C@H]1C[C@H](NC(=O)OCc2ccc(NC(=O)[C@H](CCCNC(N)=O)NC(=O)[C@@H](NC(=O)CCCCCN3C(=O)CC(SC(C)(C)[C@H](NC(C)=O)C(=O)N4CCC[C@H]4C(=O)N[C@@H](CC(C)C)C(=O)N4CCC[C@H]4C(=O)N[C@@H](CCCNC(=N)N)C(=O)N[C@H](C(=O)N[C@@H](CCCNC(=N)N)C(=O)N[C@@H](Cc4ccc(O)cc4)C(=O)O)C(C)(C)C)C3=O)C(C)C)cc2)[C@H](O)[C@H](C)O1` (some centres unmarked) [Compound 89], the IC50 came out at 2580 nM.

The assay is the same for the next values; noted with them: NTSR1 targeted compound; 72 hrs; read-out: SW-48 proliferation IC50.
Consider `CCc1c2c(nc3ccc(O)cc13)-c1cc3c(c(=O)n1C2)COC(=O)[C@@]3(CC)OC(=O)CNC(=O)CNC(=O)[C@H](CC(C)C)NC(=O)[C@H](Cc1ccccc1)NC(=O)CNC(=O)CCCCCN1C(=O)CC(SC(C)(C)[C@H](NC(C)=O)C(=O)N2CCC[C@H]2C(=O)N[C@@H](CCCNC(=N)N)C(=O)N[C@@H](CCCNC(=N)N)C(=O)N2CCC[C@H]2C(=O)N[C@@H](Cc2ccc(O)cc2)C(=O)N[C@H](C(=O)N[C@@H](CC(C)C)C(=O)O)C(C)(C)C)C1=O` (stereo partly drawn) [Compound 65] (I: Ac-[Pen]PRRPY[Tle]L-OH / II: GFLGG-{SN38(20-O)}; linker I:1-II:N via Hexanoyl(6-succinimido-3yl)), for which the IC50 worked out at 800 nM.
On the same count and under the same terms, as for `CCc1c2c(nc3ccc(O)cc13)-c1cc3c(c(=O)n1C2)COC(=O)[C@@]3(CC)OC(=O)CNC(=O)CNC(=O)[C@H](CC(C)C)NC(=O)[C@H](Cc1ccccc1)NC(=O)CNC(=O)CCCCCN1C(=O)CC(SC(C)(C)[C@H](NC(C)=O)C(=O)N2CCC[C@H]2C(=O)N[C@@H](CCCNC(=N)N)C(=O)N(C)[C@@H](CCCNC(=N)N)C(=O)N2CCC[C@H]2C(=O)N[C@@H](Cc2ccc(O)cc2)C(=O)N[C@H](C(=O)N[C@@H](CC(C)C)C(=O)O)C(C)(C)C)C1=O` (stereo partly drawn) [Compound 66] (I: Ac-[Pen]PR[NMeR]PY[Tle]L-OH / II: GFLGG-{SN38(20-O)}; linker I:1-II:N via Hexanoyl(6-succinimido-3yl)), the figure is 694 nM; as for `CCc1c2c(nc3ccc(O)cc13)-c1cc3c(c(=O)n1C2)COC(=O)[C@@]3(CC)OC(=O)CNC(=O)CNC(=O)[C@H](CC(C)C)NC(=O)[C@H](Cc1ccccc1)NC(=O)CNC(=O)CCCCCN1C(=O)CC(SC(C)(C)[C@H](NC(C)=O)C(=O)N2CCC[C@H]2C(=O)N(C)[C@@H](CCCNC(=N)N)C(=O)N[C@@H](CCCNC(=N)N)C(=O)N2CCC[C@H]2C(=O)N[C@@H](Cc2ccc(O)cc2)C(=O)N[C@H](C(=O)N[C@@H](CC(C)C)C(=O)O)C(C)(C)C)C1=O` (stereo partly drawn) [Compound 67] (I: Ac-[Pen]P[NMeR]RPY[Tle]L-OH / II: GFLGG-{SN38(20-O)}; linker I:1-II:N via Hexanoyl(6-succinimido-3yl)), 816 nM; as for `CCc1c2c(nc3ccc(O)cc13)-c1cc3c(c(=O)n1C2)COC(=O)[C@@]3(CC)OC(=O)CNC(=O)CNC(=O)[C@H](CC(C)C)NC(=O)[C@H](Cc1ccccc1)NC(=O)CNC(=O)CCCCCN1C(=O)CC(SC(C)(C)[C@H](NC(C)=O)C(=O)N2CCC[C@H]2C(=O)N[C@@H](CCCCN)C(=O)N[C@@H](CCCNC(=N)N)C(=O)N2CCC[C@H]2C(=O)N[C@@H](Cc2ccc(O)cc2)C(=O)N[C@H](C(=O)N[C@@H](CC(C)C)C(=O)O)C(C)(C)C)C1=O` (stereo partly drawn) [Compound 68] (I: Ac-[Pen]PKRPY[Tle]L-OH / II: GFLGG-{SN38(20-O)}; linker I:1-II:N via Hexanoyl(6-succinimido-3yl)), 800 nM.
